Measurements as given in US8343999B2, “Thiazolyl compounds useful as kinase inhibitors” (Bristol-Myers Squibb Company, priority 2007, dated 2013).

Experiments:
[1] = biological target: IGF1-receptor (Homo sapiens, UniProt P08069); test: IGF1-Receptor Tyrosine Kinase Assay (Caliper LabChip, fluoresceinated IGF1R substrate peptide); type: biochemical; conditions: In vitro kinase data; ATP 25 μM, IGF1-Receptor 14 nM; read-out: IGF-1R IC50
Experimental: D. IGF1-Receptor Tyrosine Kinase Assay
The assays were performed in U-bottom 384-well plates. The final assay volume was 30 μl prepared from 15 μl additions of enzyme and substrates (fluoresceinated IGF1R substrate peptide and ATP) and test compounds in assay buffer (100 mM HEPES pH 7.4, 10 mM MnCl2, 0.015% Brij35 and 4 mM DTT). The reaction was initiated by the combination of IGF1-receptor with substrates and test compounds. The reaction was incubated at room temperature for 60 min. and terminated by adding 30 μl of 35 mM EDTA to each sample. The reaction mixture was analyzed on the Caliper LabChip 3000 by electrophoretic separation of the fluorescent substrate and phosphorylated product. Inhibition data were calculated by comparison to no enzyme control reactions for 100% inhibition and vehicle-only reactions for 0% inhibition. The final concentration of reagents in the assays is ATP, 25 μM; FL-peptide, 1.5 μM; IGF1-Receptor, 14 nM; and DMSO, 1.6%. Dose response curves were generated to determine the concentration required inhibiting 50% of kinase activity (IC50). Compounds were dissolved at 10 mM in dimethylsulfoxide (DMSO) and evaluated at eleven concentrations, each in duplicate. IC50 values were derived by non-linear regression analysis.
(§1) Compounds described herein were tested in the above assay.

[2] = system: IGF1R-Sal tumors; test: IGF-1R Sal Tumor Model (tumor xenograft in nude mice); type: in vivo; conditions: qd, orally for 4 consecutive days, nude mice bearing IGF1R-Sal tumors
Experimental: P. IGF-1R Sal Tumor Model
A salivary gland adenocarcinoma that developed spontaneously in a transgenic mouse (MCI-19) was excised and cut into fragments of about 20 mg. Tumor fragments were implanted s.c. into the ventral thoracic region of a group of six female, athymic BALB/c nu/nu mice (Harley Sprague-Dawley, Indianapolis, Ind.), using a 13-gauge trocar. Once established, the salivary gland-derived tumor line was designated IGF1R-Sal and was propagated as a tumor xenograft in nude mice. Tumors were passaged every 2 weeks, at which time the tumor reached f500 to 1,000 mm3 in size. For treatment studies, nude micebearing IGF1R-Sal tumors of about 100 mm3 in size were sorted into groups of five for treatment with vehicle (80% polyethylene glycol 400 in water) alone or the test article. Compounds were administered either on a bid schedule (oral doses 8 hours apart) or on a once a day schedule orally (qd) for 4 consecutive days. Tumors were measured at the start and end of treatment. Activity was measured as % tumor growth inhibition (% TGI). The % TGI was determined using the following formula (Ct−Tt)/(Ct−Co) where Ct is defined as the median tumor size of the control group at the end of treatment, Co is defined as the median tumor size of the control group at the start of treatment, and Tt is defined as the median tumor size of the treated group at the end of treatment.
as §1

Chain of IGF1-receptor (P08069 31-1367): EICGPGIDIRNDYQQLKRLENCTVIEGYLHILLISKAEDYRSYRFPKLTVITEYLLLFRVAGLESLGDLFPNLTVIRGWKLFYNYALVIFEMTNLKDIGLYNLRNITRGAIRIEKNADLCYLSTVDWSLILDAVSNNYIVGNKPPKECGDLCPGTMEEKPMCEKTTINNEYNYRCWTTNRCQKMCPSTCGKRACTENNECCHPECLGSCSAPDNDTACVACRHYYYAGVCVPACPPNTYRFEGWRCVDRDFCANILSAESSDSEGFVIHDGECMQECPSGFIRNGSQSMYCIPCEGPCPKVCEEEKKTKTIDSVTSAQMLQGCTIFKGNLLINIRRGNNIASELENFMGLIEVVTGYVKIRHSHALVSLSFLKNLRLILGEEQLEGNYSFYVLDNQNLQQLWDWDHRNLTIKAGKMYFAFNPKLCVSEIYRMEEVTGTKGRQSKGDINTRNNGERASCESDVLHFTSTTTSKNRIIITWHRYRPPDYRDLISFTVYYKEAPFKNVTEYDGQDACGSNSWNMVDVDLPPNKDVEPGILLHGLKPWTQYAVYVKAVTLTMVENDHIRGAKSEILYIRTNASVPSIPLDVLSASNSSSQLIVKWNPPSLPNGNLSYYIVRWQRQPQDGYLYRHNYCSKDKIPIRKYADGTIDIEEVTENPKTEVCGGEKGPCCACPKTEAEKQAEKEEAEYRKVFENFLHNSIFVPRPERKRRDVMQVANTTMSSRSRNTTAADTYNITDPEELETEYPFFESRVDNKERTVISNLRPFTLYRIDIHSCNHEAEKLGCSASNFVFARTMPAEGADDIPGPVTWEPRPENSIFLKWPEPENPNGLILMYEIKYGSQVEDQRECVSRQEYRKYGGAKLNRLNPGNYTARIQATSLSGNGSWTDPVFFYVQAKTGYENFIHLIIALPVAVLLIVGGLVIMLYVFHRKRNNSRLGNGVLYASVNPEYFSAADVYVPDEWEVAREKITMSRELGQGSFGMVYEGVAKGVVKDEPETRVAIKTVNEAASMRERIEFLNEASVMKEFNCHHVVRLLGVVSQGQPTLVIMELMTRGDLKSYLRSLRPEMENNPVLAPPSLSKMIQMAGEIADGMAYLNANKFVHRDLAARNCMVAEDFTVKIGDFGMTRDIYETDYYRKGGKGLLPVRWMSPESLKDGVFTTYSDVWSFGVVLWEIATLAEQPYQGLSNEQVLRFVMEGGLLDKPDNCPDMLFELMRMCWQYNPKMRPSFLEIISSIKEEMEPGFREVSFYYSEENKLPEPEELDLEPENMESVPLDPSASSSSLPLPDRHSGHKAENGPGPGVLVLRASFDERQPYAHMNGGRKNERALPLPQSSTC

Row | Structure (SMILES) | IC50 [1] | also measured
1 | COCCOC(=O)N1CCC(CNC(=O)c2nccc(Sc3cnc(Nc4cc(C)ccn4)s3)c2F)(c2ccc(Cl)c(Cl)c2)CC1 [Example 86, 2-methoxyethyl 4-(3,4-dichlorophenyl)-4-((3-fluoro-4-(2-(4-methylpyridin-2-ylamino)thiazol-5-ylthio)picolinamido)methyl)piperidine-1-carboxylate] | 5690 nM | –
2 | Cc1ccnc(Nc2ncc(Sc3ccnc(C(=O)NCC4(c5ccccc5)CCN(CCC#N)CC4)c3F)s2)c1 [Example 33, N-((1-(2-cyanoethyl)-4-phenylpiperidin-4-yl)methyl)-3-fluoro-4-(2-(4-methylpyridin-2-ylamino)thiazol-5-ylthio)picolinamide] | 320 nM | –
3 | Cc1ccnc(Nc2ncc(Sc3ccnc(C(=O)NCC4(c5ccccn5)CCN(CCO)CC4)c3F)s2)c1 [Example 58, 3-fluoro-N-((1-(2-hydroxyethyl)-4-(pyridin-2-yl)piperidin-4-yl)methyl)-4-(2-(4-methylpyridin-2-ylamino)thiazol-5-ylthio)picolinamide] | 3 nM | –
4 | Cc1ccnc(Nc2ncc(Sc3ccnc(C(=O)NCC4(c5ccccc5)CCN(C(=O)c5ccc(Cl)c(S(N)(=O)=O)c5)CC4)c3F)s2)c1 [Example 92, N-((1-(4-chloro-3-sulfamoylbenzoyl)-4-phenylpiperidin-4-yl)methyl)-3-fluoro-4-(2-(4-methylpyridin-2-ylamino)thiazol-5-ylthio)picolinamide] | 2000 nM | –
5 | Cc1ccnc(Nc2ncc(Sc3ccnc(C(=O)NCC4(c5ccccc5)CCN(C)CC4)c3F)s2)c1 [Example 2, 3-Fluoro-N-((1-methyl-4-phenylpiperidin-4-yl)methyl)-4-(2-(4-methylpyridin-2-ylamino)thiazol-5-ylthio)picolinamide] | 9 nM | % TGI ([2]; 12.5 mg/kg): 107%
6 | Cc1ccnc(Nc2ncc(Sc3ccnc(C(=O)NCC4(c5ccccc5)CCN(C(=O)N5CCOCC5)CC4)c3F)s2)c1 [Example 90, 3-Fluoro-4-(2-(4-methylpyridin-2-ylamino)thiazol-5-ylthio)-N-((1-(morpholine-4-carbonyl)-4-phenylpiperidin-4-yl)methyl)picolinamide] | 311 nM | –
7 | Cc1ccnc(Nc2ncc(Sc3ccnc(C(=O)NCC4(c5ccccc5)CCNCC4)c3F)s2)c1 [Example 11, 3-Fluoro-4-(2-(4-methylpyridin-2-ylamino)thiazol-5-ylthio)-N-((4-phenylpiperidin-4-yl)methyl)picolinamide] | 4 nM | % TGI ([2]; 12.5 mg/kg): 19%
8 | Cc1ccnc(Nc2ncc(Sc3ccnc(C(=O)NCC4(c5ccccc5)CCN(CCO)CC4)c3F)s2)c1 [Example 5, 3-Fluoro-N-((1-(2-hydroxyethyl)-4-phenylpiperidin-4-yl)methyl)-4-(2-(4-methylpyridin-2-ylamino)thiazol-5-ylthio)picolinamide] | 3 nM | % TGI ([2]; 12.5 mg/kg): 102%
9 | Cc1ccnc(Nc2ncc(Sc3ccnc(C(=O)NCC4(c5ccccc5)CCN(S(C)(=O)=O)CC4)c3F)s2)c1 [Example 24, 3-Fluoro-4-(2-(4-methylpyridin-2-ylamino)thiazol-5-ylthio)-N-((1-(methylsulfonyl)-4-phenylpiperidin-4-yl)methyl)picolinamide] | 1 nM | –
10 | Cc1ccnc(Nc2ncc(Sc3ccnc(C(=O)NCC4(c5ccc(F)cc5F)CCN(C[C@H](O)CO)CC4)c3F)s2)c1 [Example 77, (S)—N-((4-(2,4-difluorophenyl)-1-(2,3-dihydroxypropyl)piperidin-4-yl)methyl)-3-fluoro-4-(2-(4-methylpyridin-2-ylamino)thiazol-5-ylthio)picolinamide] | 9 nM | % TGI ([2]; 25 mg/kg): 114%
11 | Cc1ccnc(Nc2ncc(Sc3ccnc(C(=O)NCC4(c5ccccc5)CCN(C(=O)c5cccnc5)CC4)c3F)s2)c1 [Example 18, 3-Fluoro-4-(2-(4-methylpyridin-2-ylamino)thiazol-5-ylthio)-N-((1-nicotinoyl-4-phenylpiperidin-4-yl)methyl)picolinamide] | 1 nM | –
12 | Cc1ccnc(Nc2ncc(Sc3ccnc(C(=O)NCC4(c5ccccc5)CCN(C(=O)c5cc(S(N)(=O)=O)c(F)cc5Cl)CC4)c3F)s2)c1 [Example 93, N-((1-(2-chloro-4-fluoro-5-sulfamoylbenzoyl)-4-phenylpiperidin-4-yl)methyl)-3-fluoro-4-(2-(4-methylpyridin-2-ylamino)thiazol-5-ylthio)picolinamide] | 3260 nM | –

Further lines, with some results ahead:

Row | IC50 [1] | Structure (SMILES) | also measured
13 | 3 nM | CC(=O)N1CCC(CNC(=O)c2nccc(Sc3cnc(Nc4cc(C)ccn4)s3)c2F)(c2ccccc2)CC1 [Example 22, N-((1-acetyl-4-phenylpiperidin-4-yl)methyl)-3-fluoro-4-(2-(4-methylpyridin-2-ylamino)thiazol-5-ylthio)picolinamide] | –
14 | 4520 nM | Cc1ccnc(Nc2ncc(Sc3ccnc(C(=O)NCC4(c5ccccc5)CCN(C(=O)C(C)(C)N)CC4)c3F)s2)c1 [Example 95, N-((1-(2-amino-2-methylpropanoyl)-4-phenylpiperidin-4-yl)methyl)-3-fluoro-4-(2-(4-methylpyridin-2-ylamino)thiazol-5-ylthio)picolinamide] | –
15 | 349 nM | COCCOC(=O)N1CCC(CNC(=O)c2nccc(Sc3cnc(Nc4cc(C)ccn4)s3)c2F)(c2ccccn2)CC1 [Example 88, 2-Methoxyethyl 4-((3-fluoro-4-(2-(4-methylpyridin-2-ylamino)thiazol-5-ylthio)picolinamido)methyl)-4-(pyridin-2-yl)piperidine-1-carboxylate] | –
16 | 25000 nM | Cc1ccnc(Nc2ncc(Sc3ccnc(C(=O)NCC4(C5CCCCC5)CCN(C(=O)OC(C)(C)C)CC4)c3F)s2)c1 [Example 44, tert-butyl 4-cyclohexyl-4-((3-fluoro-4-(2-(4-methylpyridin-2-ylamino)thiazol-5-ylthio)picolinamido)methyl)piperidine-1-carboxylate] | –
17 | 423 nM | COC(=O)N1CCC(CNC(=O)c2nccc(Sc3cnc(Nc4cc(C)ccn4)s3)c2F)(c2ccccn2)CC1 [Example 87, Methyl 4-((3-fluoro-4-(2-(4-methylpyridin-2-ylamino)thiazol-5-ylthio)picolinamido)methyl)-4-(pyridin-2-yl)piperidine-1-carboxylate] | –
18 | 6 nM | Cc1ccnc(Nc2ncc(Sc3ccnc(C(=O)NCC4(c5ccccc5)CCN(C(=O)CN(C)C)CC4)c3F)s2)c1 [Example 12, N-((1-(2-(dimethylamino)acetyl)-4-phenylpiperidin-4-yl)methyl)-3-fluoro-4-(2-(4-methylpyridin-2-ylamino)thiazol-5-ylthio)picolinamide] | % TGI ([2]; 12.5 mg/kg): 92%
19 | 9 nM | Cc1ccnc(Nc2ncc(Sc3ccnc(C(=O)NCC4(C5CCCCC5)CCN(C[C@H](O)CO)CC4)c3F)s2)c1 [Example 74, (S)—N-((4-cyclohexyl-1-(2,3-dihydroxypropyl)piperidin-4-yl)methyl)-3-fluoro-4-(2-(4-methylpyridin-2-ylamino)thiazol-5-ylthio)picolinamide] | % TGI ([2]; 50 mg/kg): 100%
20 | 358 nM | Cc1ccnc(Nc2ncc(Sc3ccnc(C(=O)NCC4(c5ccccc5)CCN(C(=O)N(C)C)CC4)c3F)s2)c1 [Example 89, N-((1-(dimethylcarbamoyl)-4-phenylpiperidin-4-yl)methyl)-3-fluoro-4-(2-(4-methylpyridin-2-ylamino)thiazol-5-ylthio)picolinamide] | –
